According to ChEMBL document CHEMBL1152011, “The first protoberberine alkaloid analogue with in vivo antimalarial activity” (Bioorg Med Chem Lett, 1994):
The source made the active and inactive calls. The calls are words filed in the database; no cut-off is given here.

Assays:
Format in all cases: functional, organism-based
[1] = system: Plasmodium falciparum; assay: In vitro inhibition of multidrug-resistant Plasmodium falciparum K1; […]
[2] = system: Mus musculus; assay: In vivo antimalarial activity against Plasmodium chabaudi in BALB/c mice (Mus musculus) at a dose of 0.25 mg/kg; active; design: dose 0.25 mg/kg
[3] = system: Plasmodium falciparum; assay: In vitro inhibition of multidrug-resistant Plasmodium falciparum K1

Row | Compound | IC50 [1] [µg/mL] | Activity [2] | IC50 [3] [µg/mL]
1 | COc1cc2c(cc1OC)-c1c(N)c3cc(OC)c(OC)cc3c[n+]1CC2.[Cl-] | 0.8 | Active | 
2 | COc1cc2c(cc1OC)-c1cc3c(OC)c(OC)ccc3c[n+]1CC2.[Cl-] | 0.8 |  | 
3 | COc1cc2c(cc1OC)-c1cc3cc(OC)c(OC)cc3c[n+]1CC2.[Cl-] | 0.8 | Active | 
4 | COc1ccc2cc3[n+](cc2c1OC)CCc1cc2c(cc1-3)OCO2.[Cl-] [BERBERINE CHLORIDE] |  |  | 0.36
